Data from US9480259B2, “Pyrazolopyrans having herbicidal and pharmaceutical properties” (BASF SE, priority 2012, dated 2016).

Target: Arabidopsis thaliana SHMT
Assay: SHMT activity assay (ED50 SHMT), coupled with N5,N10-CH2-THF dehydrogenase, NADH at 340 nm
Assay type: biochemical
Details: values given as upper bounds
In short: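 His-tagged SHMT purified on Ni-NTA. NADH formation followed at 340 nm for 30 min; ED50 from inhibition of initial velocity.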

[1] = Arabidopsis thaliana SHMT enzyme assay

EC50 (Table 2) [nM]	EC50 [1] [nM]	SMILES
< 100	–	CCC1(c2cc(Cl)cc(C#N)c2)C(C#N)=C(N)Oc2[nH]nc(C(C)C)c21 (stereo not drawn) [Compound 2.580]
< 100	–	CCC1(c2cc(C#N)cc(C(F)(F)F)c2)C(C#N)=C(N)Oc2[nH]nc(C(C)C)c21 (stereo not drawn) [Compound 2.581]
< 10	–	CCCC1(c2cc(C#N)cc(C(F)(F)F)c2)C(C#N)=C(N)Oc2[nH]nc(C(C)C)c21 (stereo not drawn) [Compound 2.582]
< 10	–	CCC1(c2cc(Br)cc(C#N)c2)C(C#N)=C(N)Oc2[nH]nc(C(C)C)c21 (stereo not drawn) [Compound 2.583]
< 10	–	CCCC1(c2cc(Cl)cc(C#N)c2)C(C#N)=C(N)Oc2[nH]nc(C(C)C)c21 (stereo not drawn) [Compound 2.584]
< 100	–	CCCC1(c2cc(Br)cc(C#N)c2)C(C#N)=C(N)Oc2[nH]nc(C(C)C)c21 (stereo not drawn) [Compound 2.585]
< 1000	–	CCCC1(c2cc(C#N)cc(C#N)c2)C(C#N)=C(N)Oc2[nH]nc(C(C)C)c21 (stereo not drawn) [Compound 2.586]
< 1000	–	CCC1(c2cc(Cl)cc(C#N)c2)C(C#N)=C(N)Oc2[nH]nc(COC)c21 (stereo not drawn) [Compound 2.587]
< 100	–	CCC1(c2cc(C#N)cc(C(F)(F)F)c2)C(C#N)=C(N)Oc2[nH]nc(COC)c21 (stereo not drawn) [Compound 2.588]
< 100	–	CCCC1(c2cc(C#N)cc(C(F)(F)F)c2)C(C#N)=C(N)Oc2[nH]nc(COC)c21 (stereo not drawn) [Compound 2.589]
< 1000	–	CCC1(c2cc(Br)cc(C#N)c2)C(C#N)=C(N)Oc2[nH]nc(COC)c21 (stereo not drawn) [Compound 2.590]
< 10000	–	CCCC1(c2cc(Cl)cc(C#N)c2)C(C#N)=C(N)Oc2[nH]nc(COC)c21 (stereo not drawn) [Compound 2.591]
< 1000	–	CCCC1(c2cc(Br)cc(C#N)c2)C(C#N)=C(N)Oc2[nH]nc(COC)c21 (stereo not drawn) [Compound 2.592]
< 10000	–	CCCC1(c2cc(C#N)cc(C#N)c2)C(C#N)=C(N)Oc2[nH]nc(COC)c21 (stereo not drawn) [Compound 2.593]
< 1000	–	Cc1n[nH]c2c1C(c1ccc(C(=O)O)c(Cl)c1)(C1CCC1)C(C#N)=C(N)O2 (stereo not drawn) [Compound 2.594]
< 10	–	Cc1n[nH]c2c1C(c1cc(Cl)cc(-c3ccc(NS(=O)(=O)C(F)(F)F)cc3)c1)(C1CCC1)C(C#N)=C(N)O2 (stereo not drawn) [Compound 2.595]
< 10	–	Cc1n[nH]c2c1C(c1cc(Cl)cc(Oc3cc(F)c(O)c(F)c3)c1)(C1CCC1)C(C#N)=C(N)O2 (stereo not drawn) [Compound 2.596]
< 100	–	Cc1n[nH]c2c1C(c1cc(Cl)cc(Oc3ccc(O)c(C(F)(F)F)c3)c1)(C1CCC1)C(C#N)=C(N)O2 (stereo not drawn) [Compound 2.597]
< 1000	–	CCC1(c2cc(Cl)cc(C#N)c2)C(C#N)=C(N)Oc2[nH]nc(OC)c21 (stereo not drawn) [Compound 2.598]
< 1000	–	CCC1(c2cc(C#N)cc(C(F)(F)F)c2)C(C#N)=C(N)Oc2[nH]nc(OC)c21 (stereo not drawn) [Compound 2.599]
< 1000	–	CCCC1(c2cc(C#N)cc(C(F)(F)F)c2)C(C#N)=C(N)Oc2[nH]nc(OC)c21 (stereo not drawn) [Compound 2.600]
< 1000	–	CCC1(c2cc(Br)cc(C#N)c2)C(C#N)=C(N)Oc2[nH]nc(OC)c21 (stereo not drawn) [Compound 2.601]
< 10000	–	CCCC1(c2cc(Cl)cc(C#N)c2)C(C#N)=C(N)Oc2[nH]nc(OC)c21 (stereo not drawn) [Compound 2.602]
< 1000	–	CCCC1(c2cc(Br)cc(C#N)c2)C(C#N)=C(N)Oc2[nH]nc(OC)c21 (stereo not drawn) [Compound 2.603]

EC50 (Table 2) [nM]	EC50 [1] [nM]	SMILES
< 1000	–	CCCC1(c2cc(C#N)cc(C#N)c2)C(C#N)=C(N)Oc2[nH]nc(OC)c21 (stereo not drawn) [Compound 2.604]
< 10	–	CCC1(c2cc(Cl)cc(C#N)c2)C(C#N)=C(N)Oc2[nH]nc(C(F)F)c21 (stereo not drawn) [Compound 2.605]
< 10	–	CCC1(c2cc(C#N)cc(C(F)(F)F)c2)C(C#N)=C(N)Oc2[nH]nc(C(F)F)c21 (stereo not drawn) [Compound 2.606]
< 10	–	CCC1(c2cc(Br)cc(C#N)c2)C(C#N)=C(N)Oc2[nH]nc(C(F)F)c21 (stereo not drawn) [Compound 2.607]
< 10	–	CCCC1(c2cc(Cl)cc(C#N)c2)C(C#N)=C(N)Oc2[nH]nc(C(F)F)c21 (stereo not drawn) [Compound 2.608]
< 100	–	CCCC1(c2cc(Br)cc(C#N)c2)C(C#N)=C(N)Oc2[nH]nc(C(F)F)c21 (stereo not drawn) [Compound 2.609]
< 100	–	CCCC1(c2cc(C#N)cc(C#N)c2)C(C#N)=C(N)Oc2[nH]nc(C(F)F)c21 (stereo not drawn) [Compound 2.610]
< 10	–	Cc1n[nH]c2c1C(c1cc(C#N)cc(N(C)C(=O)C(C)C)c1)(C1CCC1)C(C#N)=C(N)O2 (stereo not drawn) [Compound 2.613]
< 10	–	CCCCC(=O)N(C)c1cc(C#N)cc(C2(C3CCC3)C(C#N)=C(N)Oc3[nH]nc(C)c32)c1 (stereo not drawn) [Compound 2.614]
< 10	–	COc1ccc(C2(C(C)(C)F)C(C#N)=C(N)Oc3[nH]nc(C)c32)cc1Cl (stereo not drawn) [Compound 2.620]
< 100	–	Cc1n[nH]c2c1C(c1cc(C#N)cc(OCC(=O)O)c1)(C1CCC1)C(C#N)=C(N)O2 (stereo not drawn) [Compound 2.625]
< 100	–	Cc1n[nH]c2c1C(c1cc(O)cc(C#N)c1)(C1CCC1)C(C#N)=C(N)O2 (stereo not drawn) [Compound 2.626]
< 100	–	Cc1n[nH]c2c1C(c1cc(C#N)cc(CC(=O)O)c1)(C1CCC1)C(C#N)=C(N)O2 (stereo not drawn) [Compound 2.627]
< 10	–	Cc1n[nH]c2c1C(c1cc(C#N)cc(N(C)CCC#N)c1)(C1CCC1)C(C#N)=C(N)O2 (stereo not drawn) [Compound 2.629]
< 10	–	Cc1n[nH]c2c1C(c1cc(C#N)cc(N(C)CC#N)c1)(C1CCC1)C(C#N)=C(N)O2 (stereo not drawn) [Compound 2.631]
< 10	–	Cc1n[nH]c2c1C(c1cc(C#N)cc(N(C)C(=O)CCC(=O)O)c1)(C1CCC1)C(C#N)=C(N)O2 (stereo not drawn) [Compound 2.632]
< 100	–	Cc1n[nH]c2c1C(c1cc(C#N)cc(N(C)C(=O)c3cccc(C(=O)O)c3)c1)(C1CCC1)C(C#N)=C(N)O2 (stereo not drawn) [Compound 2.633]
< 100	–	Cc1n[nH]c2c1C(c1cc(C#N)cc(N(C)C(=O)c3ccc(C(=O)O)cc3)c1)(C1CCC1)C(C#N)=C(N)O2 (stereo not drawn) [Compound 2.634]
< 10	–	Cc1n[nH]c2c1C(c1cc(C#N)cc(N(C)C(=O)CCCC(=O)O)c1)(C1CCC1)C(C#N)=C(N)O2 (stereo not drawn) [Compound 2.636]
< 10	–	Cc1n[nH]c2c1C(c1ccc(CCc3nnn[nH]3)c(Cl)c1)(C1CCC1)C(C#N)=C(N)O2 (stereo not drawn) [Compound 2.637]
< 10	–	Cc1n[nH]c2c1C(c1ccc(OCc3nnn[nH]3)c(Cl)c1)(C1CCC1)C(C#N)=C(N)O2 (stereo not drawn) [Compound 2.638]
< 10	–	Cc1n[nH]c2c1C(c1ccc(Cc3nnn[nH]3)c(Cl)c1)(C1CCC1)C(C#N)=C(N)O2 (stereo not drawn) [Compound 2.639]
< 10	–	Cc1n[nH]c2c1C(c1cc(C#N)cc(-c3ccc(C(=O)O)s3)c1)(C1CCC1)C(C#N)=C(N)O2 (stereo not drawn) [Compound 2.640]
< 10	–	Cc1n[nH]c2c1C(c1cc(C#N)cc(-c3cc(OC(F)(F)F)cc(C(=O)O)c3)c1)(C1CCC1)C(C#N)=C(N)O2 (stereo not drawn) [Compound 2.643]

EC50 (Table 2) [nM]	EC50 [1] [nM]	SMILES
< 10	–	Cc1n[nH]c2c1C(c1cc(C#N)cc(-c3cc(C(=O)O)cc(C(F)(F)F)c3)c1)(C1CCC1)C(C#N)=C(N)O2 (stereo not drawn) [Compound 2.644]
< 10	–	Cc1n[nH]c2c1C(c1ccc(OCCC#N)c(Cl)c1)(C1CCC1)C(C#N)=C(N)O2 (stereo not drawn) [Compound 2.645]
< 10	–	Cc1n[nH]c2c1C(c1ccc(OCCc3nnn[nH]3)c(Cl)c1)(C1CCC1)C(C#N)=C(N)O2 (stereo not drawn) [Compound 2.646]
< 10	–	Cc1n[nH]c2c1C(c1ccc(CCC#N)c(C#N)c1)(C1CCC1)C(C#N)=C(N)O2 (stereo not drawn) [Compound 2.647]
< 10	–	Cc1n[nH]c2c1C(c1cc(CNC(=O)CCC(=O)O)cc(C(F)(F)F)c1)(C1CCC1)C(C#N)=C(N)O2 (stereo not drawn) [Compound 2.649]
< 10	–	Cc1n[nH]c2c1C(c1cc(C#N)cc(CCC#N)c1)(C1CCC1)C(C#N)=C(N)O2 (stereo not drawn) [Compound 2.650]
< 10	–	Cc1n[nH]c2c1C(c1cc(Cl)cc(Cl)c1)(C(C)F)C(C#N)=C(N)O2 (stereo not drawn) [Compound 2.651]
< 10	–	Cc1n[nH]c2c1C(c1cc(Cl)cc(Cl)c1)(C1CC(F)(F)C1)C(C#N)=C(N)O2 (stereo not drawn) [Compound 2.652]
–	< 100	Cc1n[nH]c2c1C(c1cc(Cl)cc(Cl)c1)(C(C)(F)F)C(C#N)=C(N)O2 (stereo not drawn) [Compound 2.653]
–	< 100	Cc1n[nH]c2c1C(c1ccc(CCc3nnn[nH]3)c(-c3nnn[nH]3)c1)(C1CCC1)C(C#N)=C(N)O2 (stereo not drawn) [Compound 2.654]
–	< 10000	Cc1n[nH]c2c1C(c1cc(CCc3nnn[nH]3)cc(-c3nnn[nH]3)c1)(C1CCC1)C(C#N)=C(N)O2 (stereo not drawn) [Compound 2.655]
–	< 10	Cc1n[nH]c2c1C(c1cc(C#N)cc(-c3cccc(C(=O)O)c3)c1)(C1(F)COC1)C(C#N)=C(N)O2 (stereo not drawn) [Compound 2.656]
–	< 10	CCOC(=O)CCCN(C)c1cc(C#N)cc(C2(C3CCC3)C(C#N)=C(N)Oc3[nH]nc(C)c32)c1 (stereo not drawn) [Compound 2.658]
–	< 10	Cc1n[nH]c2c1C(c1cc(C#N)cc(N(C)C(=O)CCCC#N)c1)(C1CCC1)C(C#N)=C(N)O2 (stereo not drawn) [Compound 2.659]
–	< 10	Cc1n[nH]c2c1C(c1cc(C#N)cc(N(C)Cc3ccccc3)c1)(C1CCC1)C(C#N)=C(N)O2 (stereo not drawn) [Compound 2.660]
–	< 10	Cc1n[nH]c2c1C(c1cc(C#N)cc(N(C)C(=O)CCC#N)c1)(C1CCC1)C(C#N)=C(N)O2 (stereo not drawn) [Compound 2.661]
–	< 10	Cc1n[nH]c2c1C(c1cc(Cl)cc(SCC#N)c1)(C1CCC1)C(C#N)=C(N)O2 (stereo not drawn) [Compound 2.665]
–	< 10	COCCOCC(=O)N(C)c1cc(C#N)cc(C2(C(C)C)C(C#N)=C(N)Oc3[nH]nc(C)c32)c1 (stereo not drawn) [Compound 2.666]
–	< 10	Cc1n[nH]c2c1C(c1cc(Cl)cc(SCc3nnn[nH]3)c1)(C1CCC1)C(C#N)=C(N)O2 (stereo not drawn) [Compound 2.667]
–	< 100	Cc1n[nH]c2c1C(c1cc(-c3nnn[nH]3)cc(N(C)C(=O)CCC#N)c1)(C1CCC1)C(C#N)=C(N)O2 (stereo not drawn) [Compound 2.668]
–	< 100	Cc1n[nH]c2c1C(c1cc(C#N)cc(N(C)C(=O)c3ccc(C(=O)O)cc3)c1)(C(C)C)C(C#N)=C(N)O2 (stereo not drawn) [Compound 2.669]
–	< 10	Cc1n[nH]c2c1C(c1cc(Cl)cc(CCCC#N)c1)(C1CCC1)C(C#N)=C(N)O2 (stereo not drawn) [Compound 2.670]
–	< 10	Cc1n[nH]c2c1C(c1cc(C#N)cc(CCC#N)c1)(C(C)C)C(C#N)=C(N)O2 (stereo not drawn) [Compound 2.671]
–	< 10	Cc1n[nH]c2c1C(c1ccc(CC#N)c(C#N)c1)(C1CCC1)C(C#N)=C(N)O2 (stereo not drawn) [Compound 2.672]
